{"source": "the SangsterLogP compilation", "key": {"[1]": {"assay": "method code SF, from Dai, J-Y.; Han, S.; Wang, L. (2000). Prediction of partition properties of substituted benzaldehydes using different structural parameters. Zhongguo Huanjing Kexue (China Environmental Science), …"}, "[2]": {"assay": "method code SF-AS, from DOI: 10.1016/0041-008x(67)90079-8"}, "[3]": {"assay": "not given", "remark": "listed apart in the source"}, "[4]": {"assay": "not given", "remark": "listed apart in the source"}, "[5]": {"assay": "from KURIHARA, Norio.; Fujita, Toshio. (1983). Composition of Partition Coefficients of Polychlorinated Hydrocarbons (Commemoration Issue Dedicated to Professor Yuzo Inouye on the Occasion of his …"}, "[6]": {"assay": "method code SF, from DOI: 10.2307/3575246, PMID: 7367588"}, "[7]": {"assay": "method code SF-AS, from DOI: 10.1248/cpb.17.2558", "settings": "pH 5.5"}, "[8]": {"assay": "method code SF-AS, from DOI: 10.1016/0378-5173(93)90388-v"}, "[9]": {"assay": "method code SF-RC, from DOI: 10.1016/s0969-8051(01)00233-5, PMID: 11518650"}, "[10]": {"assay": "from Wang, L.; Xu, L.; Xu, O.; Tian, L.; Zheng, Z. (1989). Simultaneous determination of partition coefficients and acid dissociation constants of some organic dibasic acids and diacidic bases in the …"}, "[11]": {"assay": "method code SF-AS, from DOI: 10.1016/0378-5173(80)90061-7"}, "[12]": {"assay": "not given", "remark": "listed apart in the source"}, "[13]": {"assay": "not given", "remark": "listed apart in the source"}, "[14]": {"assay": "method code SF, from DOI: 10.1016/0165-1218(78)90089-7, PMID: 362190"}, "[15]": {"assay": "not given", "remark": "listed apart in the source"}, "[16]": {"assay": "method code SF-AS, from DOI: 10.1016/s0021-9673(01)89384-5"}, "[17]": {"settings": "pH 7.3"}, "[18]": {"assay": "method code SF-AS, from DOI: 10.1016/j.bmc.2008.07.057, PMID: 18706818", "settings": "pH 7.4"}, "[19]": {"assay": "not given", "remark": "listed apart in the source"}, "[20]": {"assay": "not given", "remark": "listed apart in the source"}, "[21]": {"assay": "method code SF, from DOI: 10.1016/s0928-0987(00)00099-3, PMID: 10915965", "settings": "pH 5.0"}, "[22]": {"assay": "method code SF-AS, from DOI: 10.1248/cpb.40.925"}, "[23]": {"assay": "not given", "remark": "listed apart in the source"}, "[24]": {"assay": "not given", "remark": "listed apart in the source"}, "[25]": {"assay": "method code SF-AS, from Lee, B.; Shin, J.; Lim, M.; Jang, T.; Park, J.; Kim, K.; Kang, W. (1997). Partition Property of 5-Nitrothiopyrimidine Nucleoside. Bull Korean Chem Soc, 18(7)734-736.", "settings": "pH 7.0"}, "[26]": {"assay": "method code SF-AS, from DOI: 10.1002/etc.5620181211"}, "[27]": {"assay": "not given", "remark": "listed apart in the source"}, "[28]": {"assay": "method code SF, from Huang, Q.; Wang, L.; Han, S.; Wang, G.; Gao, H. (1993). Quantitative relation between molecular structures and the hydrophobic parameters of halogenated arenes. Chemical Journal of Chinese …"}, "[29]": {"assay": "method code SF-AS, from DOI: 10.1111/j.2042-7158.1989.tb06480.x, PMID: 2570831", "settings": "pH 7.4"}, "[30]": {"assay": "method code SF, from DOI: 10.1016/0006-2952(91)90449-f, PMID: 1930261", "settings": "pH 2.0"}, "[31]": {"assay": "not given", "remark": "listed apart in the source"}, "[32]": {"assay": "not given", "remark": "listed apart in the source"}}, "data": [{"compound": "Cc1ccc(C)c(C=O)c1", "values": [{"measurement": "logP", "setting": "[1]", "result": 1.91}]}, {"compound": "CCCCOCC", "values": [{"measurement": "logP", "result": 2.03}]}, {"compound": "Clc1ccc(Cl)nc1", "values": [{"measurement": "logP", "setting": "[2]", "result": 2.4}]}, {"compound": "C1CCCCCCC1", "values": [{"measurement": "logP", "setting": "[3]", "result": 3.28}]}, {"compound": "CCCC(C)O", "note": "(stereo not drawn)", "values": [{"measurement": "logP", "setting": "[4]", "result": 1.34}]}, {"compound": "Cl[C@@H]1CCCC[C@@H]1Cl", "values": [{"measurement": "logP", "setting": "[5]", "result": 3.18}]}, {"compound": "CS(=O)CCn1ccnc1[N+](=O)[O-]", "note": "(stereo not drawn)", "values": [{"measurement": "logP", "setting": "[6]", "result": -1.22}]}, {"compound": "CNc1ccc(S(N)(=O)=O)cc1", "values": [{"measurement": "logD", "setting": "[7]", "result": 0.08}]}, {"compound": "CC1CCC(=O)N1C", "note": "(stereo not drawn)", "values": [{"measurement": "logP", "setting": "[8]", "result": -0.07}]}, {"compound": "CCN(CC)CCF", "values": [{"measurement": "logP", "setting": "[9]", "result": 0.94}]}, {"compound": "O=C(O)CCC(=O)O", "values": [{"measurement": "logP", "setting": "[10]", "result": -0.61}]}, {"compound": "COC(=O)CCCO", "values": [{"measurement": "logP", "setting": "[11]", "result": -0.06}]}, {"compound": "Cc1ccc([N+](=O)[O-])cc1", "values": [{"measurement": "logP", "setting": "[12]", "result": 2.4}]}, {"compound": "CCC(C)O", "note": "(stereo not drawn)", "values": [{"measurement": "logP", "setting": "[4]", "result": 0.81}]}, {"compound": "CCN(CC)C(=O)SCc1ccc(Cl)cc1", "values": [{"measurement": "logP", "setting": "[13]", "result": 3.78}]}, {"compound": "O=[N+]([O-])c1ccccc1", "values": [{"measurement": "logP", "setting": "[12]", "result": 1.86}]}, {"compound": "N#Cc1ccc([N+](=O)[O-])n1CCO", "values": [{"measurement": "logP", "setting": "[14]", "result": 0.6}]}, {"compound": "ClC1C(Cl)C(Cl)C(Cl)C(Cl)C1Cl", "note": "(stereo not drawn)", "values": [{"measurement": "logP", "setting": "[15]", "result": 3.67}]}, {"compound": "c1ccc(-c2nccnn2)cc1", "values": [{"measurement": "logP", "setting": "[16]", "result": 1.71}]}, {"compound": "O=[N+]([O-])c1nccn1CC(O)CCl", "note": "(stereo not drawn)", "values": [{"measurement": "logP", "setting": "[14]", "result": 0.15}]}, {"compound": "Cn1cccc(O)c1=O", "values": [{"measurement": "logD", "setting": "[17]", "result": -0.4}]}, {"compound": "CCC1(C(N)=O)CCC=[N+]1[O-]", "note": "(stereo not drawn)", "values": [{"measurement": "logD", "setting": "[18]", "result": -1.25}]}, {"compound": "ClC1=CC(Cl)C(Cl)C(Cl)C1", "note": "(stereo not drawn)", "values": [{"measurement": "logP", "setting": "[5]", "result": 3.52}]}, {"compound": "O=C(O)c1ccccn1", "values": [{"measurement": "logP", "setting": "[19]", "result": -1}]}, {"compound": "COc1cc(NCc2ccc3nc(N)nc(N)c3c2C)cc(OC)c1OC", "values": [{"measurement": "logD", "setting": "[20]; pH 13.0", "result": 2.55}]}, {"compound": "COP(=O)(OC)C(C)(O)P(=O)(OC)OC", "values": [{"measurement": "logD", "setting": "[21]", "result": -1.39}]}, {"compound": "O=C(Cn1ccnc1[N+](=O)[O-])NCC(O)CO", "note": "(stereo not drawn)", "values": [{"measurement": "logP", "setting": "[6]", "result": -1.85}]}, {"compound": "Cn1cccc1", "values": [{"measurement": "logP", "setting": "[22]", "result": 1.15}]}, {"compound": "CCCC(CO)N1C=NC2C(N)=NC=NC21", "note": "(stereo not drawn)", "values": [{"measurement": "logP", "result": 0.66}]}, {"compound": "CCOC(C)=O", "values": [{"measurement": "logP", "setting": "[23]", "result": 0.53}]}, {"compound": "Nc1cc(Cl)ccc1Cl", "values": [{"measurement": "logP", "setting": "[24]", "result": 2.62}]}, {"compound": "O=c1[nH]cc([N+](=O)[O-])c(=O)[nH]1", "values": [{"measurement": "logD", "setting": "[25]", "result": -1.38}]}, {"compound": "C(=C\\c1ccccn1)/c1ccccc1", "values": [{"measurement": "logP", "setting": "[26]", "result": 1.96}]}, {"compound": "Nc1ccc([N+](=O)[O-])cn1", "values": [{"measurement": "logP", "setting": "[27]", "result": 0.65}]}, {"compound": "Clc1ccc(Br)cc1", "values": [{"measurement": "logP", "setting": "[28]", "result": 3.83}]}, {"compound": "Nc1ncnc2[nH]cnc12", "values": [{"measurement": "logD", "setting": "[29]", "result": -0.05}]}, {"compound": "CN1C(=O)NC(=O)C(=O)C1=O", "values": [{"measurement": "logD", "setting": "[30]", "result": -1.04}]}, {"compound": "C=CCCCCCC", "values": [{"measurement": "logP", "setting": "[31]", "result": 4.72}]}, {"compound": "COC(=O)c1ccoc1", "values": [{"measurement": "logP", "setting": "[22]", "result": 1.28}]}, {"compound": "Brc1ccccc1Br", "values": [{"measurement": "logP", "setting": "[28]", "result": 4.07}]}, {"compound": "Nc1cccc(Cl)c1Cl", "values": [{"measurement": "logP", "setting": "[24]", "result": 2.51}]}, {"compound": "COc1ccccc1", "values": [{"measurement": "logP", "setting": "[32]", "result": 2.15}]}, {"compound": "O=c1[nH]cnc2nc[nH]c12", "values": [{"measurement": "logP", "setting": "[20]", "result": -0.96}]}]}
